From patent publication US20070043114A1, “Nerve regeneration promoters” (priority 2003, published 2007)

Columns and labels:
sciatic nerve = conditions: mature rat, axon of sciatic nerve cut; Brain Research 975, 229-236 (2003); cited from earlier work
[1] = tested on: astrocytes derived from cerebral cortex of rats; assay: differentiation test of astrocytes derived from cerebral cortex of rats; assay type: cell-based, rats of Wistar strain; conditions: for positive cell numbers per visual field stained by an anti-βIII-tubulin antibody: differentiated seven days, no compound-added group 93±10.9
Experimental: Cerebrum was excised from newly-born rats of Wistar strain and, after removal of meninx under a stereoscopic microscope, it was ground with a frost part of a slide glass with frost in an ice-cooled DMEM medium to prepare a suspension. Centrifugal separation was conducted at 100×g for 3 minutes and the precipitate was suspended in a 10% bovine fetal serum-DMEM medium and sown in a 75-cm^2 flask. After two days from the start of culturing, cell purification was conducted. On the 19th day from the start of the culturing, astrocytes were recovered using 0.05% trypsin/EDTA and the cells were suspended again using a differentiation medium (a DMEM/F12 medium (Gibco) containing N2 additive (N2 Plus Supplement; R&D Systems) and 1% fetal bovine serum (manufactured by Dainippon Pharmaceutical). That was sown on a chamber slide and, on the next day, the culturing solution was exchanged to a differentiated medium (a DMEM/F12 medium comprising N2 additive, antibiotic and 1% fetal bovine serum) containing a test compound. After differentiating for seven days, fixation was conducted using 4% paraformaldehyde and the following immunostaining was conducted. With regard to nerve cells prepared by differentiation of astrocytes derived from cerebral cortex of rats, their differentiation stage was confirmed by means of immunostaining. Incidentally, anti-βIII-tubulin antibody and anti-doublecortin antibody were used for confirmation of young nerve cells; anti-MAP2 antibody, anti-NeuN antibody and anti-NSE antibody were used for confirmation of mature nerve cells; and anti-GABA antibody was used for confirmation of functional nerve cells.

[2] = tested on: four-vein ligated (4VO) rat model; assay: 4VO rat model: BrdU and NeuN double immunostaining, hippocampus CA1 region; assay type: in vivo, rat of Wistar strain; conditions: 4VO rats, 10 mg/kg oral once daily for 40 days from 8th day after 4VO, n=13
Experimental: (§1) A four-vein ligated (4VO) rat model was prepared by a partially modified method by Prusinery, et al. (J. Cereb. Blood Flow Metab., 16, 973-980 […]). Thus, vertebral arteries on both sides of male rat of Wistar strain were permanently obstructed and, on the next day, whole carotid artery was exposed and was temporally obstructed for 10 minutes using a clip. Rats where no response was noted immediately after obstruction of whole carotid arteries on both sides and forward-facing response disappeared were used for the experiment.
Evaluation of nerve cell regeneration was conducted by preparing brain tissue sample by Nissl staining and counting nerve cell numbers in right and left hippocampus CA1 regions.
Confirmation of the fact that […] nerve cells increased in Example 1-A-2-1 were regenerated nerve cells was conducted by preparing a brain tissue sample immunostained with BrdU and NeuN and counting nerve cell numbers which were positive to double staining in right and left hippocampus CA1 region. […] Nerve cell numbers which were positive to double staining were calculated as number per unit length (mm) using nerve cell layer length of the hippocampus CA1 region and nerve cell numbers which were positive to double staining.

[3] = tested on: four-vein ligated (4VO) rat model; assay: 4VO rat model: water maze learning test; assay type: in vivo, rat of Wistar strain; conditions: 4VO rats; for successful times compared with the control group (χ2 test): fourth session, p<0.05
Experimental: as §1
A four-vein ligated (4VO) rat model was prepared according to a method mentioned in Example 1-A-1 and subjected to the following test.
In the water maze learning test, a black circular pool (manufactured by Neuroscience) of 150 cm diameter and 50 cm height was used. The pool was filled with tap water of about 23° C. to a height of about 30 cm (platform surface was about 1 cm beneath the water surface). The platform (made of colorless and transparent acrylate; circular shape having 10 cm diameter) which was to be a goal was placed in a distance of about 35 cm from the inner wall of the pool. During the test period, positions of things which were hints for recognition of space such as racks, illumination instruments and persons who conducted the experiments were made constant and illumination level was made constant as well.
Rats on the third day after completion of repetitive administrations were allowed to stand at a starting position and the time until they climbed up to the platform (escape latency (seconds)) was measured. Maximum swimming time for climbing up to the platform was made 90 seconds and, when a rat climbed up to the plant form, it was allowed to stand there for about 30 seconds and then returned to a cage. When a rat was unable to climb up to the platform within a measuring time of 90 seconds, the rat was taken out from water, transferred onto the platform, allowed to stand there for about 30 seconds and returned to the cage. Incidentally, the escape latency at that time was counted as 90 seconds. Interval between trials was made about 30 minutes, four trials were conducted a day and they were defined as one session. Such a session was conducted for continued four days and (1) escape latency and (2) successful times (times of being able to reach the platform during four trials) were evaluated.

[4] = tested on: four-vein ligated (4VO) rat model; assay: 4VO rat model: histological observation (Nissl-stained specimen), hippocampus CA1 nerve cell numbers; assay type: in vivo, rat of Wistar strain; conditions: 4VO rats, 1 mg/kg oral
Experimental: as §1
A four-vein ligated (4VO) rat model was prepared according to a method mentioned in Example 1-A-1 and subjected to the following test. […]
With regard to the specimens for histopathological test, three kinds of specimens, i.e. (1) Nissl-stained specimen (a site of 5.7 mm from interaural line), (2) specimen stained with hematoxylin-eosin and (3) unstained specimen (thickness: 10 μm) were prepared for brain tissue sample from one animal. Among them, with regard to the Nissl-stained specimen, right and left hippocampus CA1 nerve cell layer lengths and nerve cell numbers were measured by using Image Analyzer (MCID Elite 7.0 Rev.1.0) and numbers per unit length (mm) were calculated to conduct a histological evaluation.

[5] = tested on: nerve stem cells derived from striatum of a rat; assay: differentiation test of stem cells derived from fetal brain of rats; assay type: cell-based, rat of Wistar strain; conditions: 30 μmol/L
Experimental: Fetus was taken out from a pregnant rat of Wistar strain and striatum was excised from brain of the fetus. Cells were dispersed by means of pipetting and incubated for six to seven days in a growth medium (a DMEM/F12 medium (manufactured by Gibco) containing N2 additive (N2 Plus Supplement; R&D Systems), antibiotics, basic fibroblast growth factor (20 ng/mL bFGF; manufactured by R&D Systems) and epithelial cell growth factor (20 ng/mL EGF; manufactured by R&D Systems). The resulting neurospheres were recovered, cells were dispersed by means of pipetting and culturing was conducted for six to seven days more using a growth medium. Neurospheres which were produced again were recovered and, after cells were dispersed, they were cultured on a chamber slide subjected to a poly-L-ornithine coating. After incubating for 24 hours, exchange to a differentiated medium comprising a test compound (a DMEM/F12 medium comprising N2 additive, antibiotic and 1% fetal bovine serum) was conducted. After differentiating for seven days, fixation was conducted with 4% paraformaldehyde and a immunostaining was conducted using a mouse anti-βIII-tubulin antibody (second antibody: FITC-labeled anti-mouse IgG antibody) which is to be an index for differentiation from nerve stem cells to nerve cells).
For example, when 30 μmol/L of (2R)-2-propyloctanoic acid was used, the cell numbers in the no compound-added group were 8±1.3 (in eight visual fields) while those in the group to which the compound was added were 31±4.6 (in eight visual fields).
With regard to the above nerve cells prepared by differentiation of nerve stem cells derived from striatum of rats, their differentiation stage was confirmed by means of immunostaining. Incidentally, for the confirmation of mature nerve cells, anti-MAP2 antibody was used while, for the confirmation of functional nerve cells, anti-GABA antibody was used.

[6] = dog, in vivo, 100 mg/kg
Text: Toxicity of the compound of the present invention is sufficiently low and has been confirmed to be sufficiently safe for using as a medicament.

CCCC(CCC)C(=O)O [2-propylpentanoic acid]
axon elongation and recovery of kinetic function (sciatic nerve): the axon is elongated and kinetic function is recovered
positive cell numbers per visual field stained by an anti-βIII-tubulin antibody ([1]; 300 μmol/L): 174.8±7.8

CCCCCC[C@@H](CCC)C(=O)O [(2R)-2-propyloctanoic acid]
cells positive to double staining (anti-BrdU and anti-NeuN) per mm, hippocampus CA1 region [2]: 5.7±1.2 cells/mm
Escape latency ([3]; 1 mg/kg oral, session 1): 68.2 ± 3.5 s
Escape latency ([3]; 1 mg/kg oral, session 2): 61.8 ± 4.4 s
Escape latency ([3]; 1 mg/kg oral, session 3): 52.5 ± 6.9 s
Escape latency ([3]; 1 mg/kg oral, session 4): 46.9 ± 7.6 s
successful times compared with the control group (χ2 test) ([3]; 3 mg/kg oral): significant difference
Escape latency ([3]; 3 mg/kg oral, session 1): 63.2 ± 3.8 s
Escape latency ([3]; 3 mg/kg oral, session 2): 48.7 ± 5.5 s
Escape latency ([3]; 3 mg/kg oral, session 3): 42.8 ± 6.4 s
successful times compared with the control group (χ2 test) ([3]; 10 mg/kg oral): significant difference
Escape latency ([3]; 10 mg/kg oral, session 1): 66.8 ± 3.7 s
Escape latency ([3]; 10 mg/kg oral, session 2): 44.5 ± 4.5 s
Escape latency ([3]; 10 mg/kg oral, session 3): 41.4 ± 5.2 s
Nerve cell density, hippocampus CA1 region [4]: 45.0 ± 5.6 cells/mm
βIII-tubulin-positive (Tuj1+) cell numbers per visual field ([5]; differentiated seven days, eight visual fields, 100 magnifications, no compound-added group 8±1.3): 31±4.6
positive cell numbers per visual field stained using an anti-GABA antibody ([5]; no compound-added group 19±2.7): 101±9.5
positive cell numbers per visual field stained using an anti-MAP2 antibody ([5]; no compound-added group 34±0.9): 50±7.4
positive cell numbers per visual field stained by an anti-βIII-tubulin antibody ([1]; 30 μmol/L): 177±11.8
positive cell numbers stained by an anti-GABA antibody ([1]; 30 μmol/L, no compound-added group 20±1.0): 60±8.8
positive cell numbers stained by an anti-MAP2 antibody ([1]; 30 μmol/L, no compound-added group 50±7.4): 104±10.3
positive cell numbers stained by an anti-doublecortin antibody ([1]; 30 μmol/L, no compound-added group 55±5.7): 168±16.6
positive cell numbers stained by an anti-NeuN antibody ([1]; 30 μmol/L, no compound-added group 106): 199
positive cell numbers stained by an anti-NSE antibody ([1]; 30 μmol/L, no compound-added group 108): 166
positive cell numbers per visual field stained by an anti-βIII-tubulin antibody ([1]; 100 μmol/L): 230±11.0
dead cases [6]: no dead case was noted
